This is an account of results in patent publication US20140322196A1 (priority 2011, published 2014).

Ends that are not written are not given here.

The subject of data set [1] is A/Roma-ISS/2/08 H1N1. The conditions noted are these: read-out: EC50 (effective concentration 50%); A/Roma-ISS/2/08 H1N1, MDCK cells.
For data set [2], the system named is A/Parma/05/06 H3N2. The conditions noted are these: read-out: EC50 (effective concentration 50%); A/Parma/05/06 H3N2, MDCK cells.
The nature of data set [3]: Cytotoxicity assay. Type of data set: cell-based, canine. The conditions noted are these: dog, MDCK cells, read-out: CC50 (cytotoxic concentration 50%). The method, then: To establish the maximal non-cytotoxic dose of bLf and its derivatives, two-fold serial dilutions of each substance in culture medium were incubated at 37° C. with confluent MDCK cells grown in 96-well tissue culture microplates (Nalge Europe Ltd, Neerijse, Belgium). After 24 h, the following parameters were evaluated: cell morphology and viability (determined by neutral red staining) were examined by light microscopy and cell proliferation was evaluated quantitatively by microscopic counts after dispersion into individual cells with trypsin.

The test system of data set [4] is A/Parma/24/09 H1N1. The conditions noted are these: read-out: EC50 (effective concentration 50%); A/Parma/24/09 H1N1, MDCK cells.
Data set [5] can be described thus: Peptide stability. Type of data set: physicochemical.

On to “AGDDQGLDKCVPNSKEK [SEQ ID NO: 2, AGDDQGLDKCVPNSKEK]”, for which the EC50 in data set [1] turned out to be 3.7 pM; in data set [2], 7.3 pM; in data set [4] it was 3.4 pM. The CC50 at 24 h in data set [3] was above 25 µM.
As for NGESSADWAKN [SEQ ID NO: 4, NGESSADWAKN], in data set [2], the EC50 turned out to be 22.5 pM. The CC50 at 24 h in data set [3] is above 25 µM.
Turning to “NGESTADWAKN (bovine lactoferrin peptide from 553 aa to 563 aa) [SEQ ID NO: 3, bLf C-lobe peptide, residues 553-563]”, the “stability of the peptide (in words)” value in data set [5] is given as “poor stability”.
With “SKHSSLDCVLRP [SEQ ID NO: 1, SKHSSLDCVLRP]”, the EC50 in data set [1] was 4 pM; in data set [2], 5.8 pM; in data set [4] it was 3.1 pM. In addition, the CC50 at 24 h in data set [3] was above 25 µM.
